Assay results published in PubChem BioAssay AID652053 (Broad Institute, 2013).

Tested on: Huh7 psiCHECK-miR122 Renilla luciferase reporter, 48 h
Assay: suppression of miR-122 activity, Renilla luciferase sensor – cell-based, Huh7 psiCHECK-miR122, cherry-pick, dose response (AID 652053)

Compound	AC40
CC(=O)c1c(C)[nH]c(C(=O)Nc2ccc(C)c(S(=O)(=O)Nc3ccc(C)cc3C)c2)c1C	8.45 µM
CCN(CC)c1ccc(N)cc1S(=O)(=O)Nc1ccc(OC)cc1	27.3 µM
C[C@H](CO)N1C[C@H](C)[C@@H](CN(C)Cc2ccc(C(F)(F)F)cc2)Oc2c(cccc2N(C)C)C1=O	2.48 µM
O=C(c1ccc(F)cc1)N1C[C@H]2[C@@H](c3ccccc31)[C@@H](CO)N2Cc1ccc2c(c1)OCO2	17.3 µM
O=C(Cc1ccccc1)N1C[C@@H]2[C@H](c3ccccc31)[C@H](CO)N2C(=O)Nc1ccc(F)cc1	4.71 µM
O=C(NCc1ccccn1)c1cccc(NS(=O)(=O)c2cccc(F)c2)c1	5.83 µM
COc1ccccc1CNC(=O)C[C@@H]1CC[C@H]2[C@H](COc3ccc(NC(C)=O)cc3C(=O)N2C)O1	22 µM
COc1ccc(C)cc1S(=O)(=O)NC1CCCC1	6.24 µM
CC(=O)Nc1ccc(S(=O)(=O)Nc2cccc(-c3csc(C)n3)c2)cc1	8.21 µM
C[C@@H]1CN([C@H](C)CO)C(=O)c2cccc(N(C)C)c2O[C@H]1CN(C)C(=O)Nc1ccccc1	1.33 µM
Clc1cccc(Cl)c1CSc1nnc(CN2CCOCC2)n1-c1ccccc1	10.4 µM
C[C@H](CO)N1C[C@H](C)[C@@H](CN(C)Cc2ccc3c(c2)OCO3)Oc2c(NC(=O)C3CCOCC3)cccc2C1=O	9.34 µM
Cc1ccc(S(=O)(=O)Nc2ccc(C(=O)Nc3cc(C)on3)cc2)cc1	1.44 µM
CN1c2ccc(-c3ccccc3F)cc2[C@H]2[C@H](CCN2S(=O)(=O)c2ccccc2F)[C@H]1CO	2.4 µM
O=C(Nc1nc2ccc(Cl)cc2s1)c1ccco1	20.8 µM
COCC#Cc1ccc2c(c1)O[C@H](CN(C)S(=O)(=O)c1ccc(OC)cc1)[C@H](C)CN([C@H](C)CO)S2(=O)=O	5.8 µM
Cc1cccc(C(=O)Nc2cccc(S(=O)(=O)NCc3ccco3)c2)c1	3.29 µM
COc1ccc(Cl)cc1N(CC(=O)N1CCCC1)S(=O)(=O)c1ccc(C)cc1	2.49 µM
CN1C(=O)c2cc(NC(=O)Cc3ccccc3)ccc2OC[C@@H]2O[C@H](CC(=O)NCC3CC3)CC[C@@H]21	0.512 µM
NC(=O)Cn1cc(/C=N\NS(=O)(=O)c2ccc(Cl)cc2)c2ccccc21	3.75 µM
COc1ccc(N(C(=O)c2ccco2)S(=O)(=O)c2cc(Cl)c(Cl)cc2Cl)cc1	12.4 µM
COc1ccc(NS(=O)(=O)c2cc(NC(=O)[C@@H](NC(=O)c3ccccc3)C(C)C)ccc2C)cc1	2.3 µM
Cc1ccc(C)c(NS(=O)(=O)c2cc(C(=O)NCc3ccco3)ccc2C)c1	7.68 µM
COc1ccc(S(=O)(=O)Nc2ccc(S(=O)(=O)Nc3ccc(F)cc3)cc2)cc1C	14.5 µM
COc1ccc(F)cc1S(=O)(=O)NC1CCCCCC1	5.11 µM
